Values of other authors, collected in patent publication US20250213503A1, “TREATMENT OF CANCER WITH S1P RECEPTOR AGONISTS” (PRIOTHERA SAS, priority 2022, published 2025).

Target: S1PR1 (Homo sapiens, UniProt P21453)
Sequence (P21453 whole entry, species assumed): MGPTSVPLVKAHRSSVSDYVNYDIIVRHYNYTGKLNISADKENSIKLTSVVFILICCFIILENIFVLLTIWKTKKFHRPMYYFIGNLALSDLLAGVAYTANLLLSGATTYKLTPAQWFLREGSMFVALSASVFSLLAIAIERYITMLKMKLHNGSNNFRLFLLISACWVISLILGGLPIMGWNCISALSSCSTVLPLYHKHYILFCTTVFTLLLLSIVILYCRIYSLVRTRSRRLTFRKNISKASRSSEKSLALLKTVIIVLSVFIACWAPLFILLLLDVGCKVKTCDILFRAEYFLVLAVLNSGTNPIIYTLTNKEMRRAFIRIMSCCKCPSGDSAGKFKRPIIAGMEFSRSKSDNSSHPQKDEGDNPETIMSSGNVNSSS

CCCCCCCCc1ccc(CCC(N)(CO)CO)cc1 [FTY720]
selectivity for S1PR1 versus S1PR3-5: poor selectivity for S1PR1 versus S1PR3-5
